Target: T1, human CXCR2 receptor (Homo sapiens, UniProt P25025)
T1 construct: purchased Biosignal Packard Inc; host or cells: Chinese hamster ovary cell (CHO-K1) membranes
T1 sequence (P25025 1-360): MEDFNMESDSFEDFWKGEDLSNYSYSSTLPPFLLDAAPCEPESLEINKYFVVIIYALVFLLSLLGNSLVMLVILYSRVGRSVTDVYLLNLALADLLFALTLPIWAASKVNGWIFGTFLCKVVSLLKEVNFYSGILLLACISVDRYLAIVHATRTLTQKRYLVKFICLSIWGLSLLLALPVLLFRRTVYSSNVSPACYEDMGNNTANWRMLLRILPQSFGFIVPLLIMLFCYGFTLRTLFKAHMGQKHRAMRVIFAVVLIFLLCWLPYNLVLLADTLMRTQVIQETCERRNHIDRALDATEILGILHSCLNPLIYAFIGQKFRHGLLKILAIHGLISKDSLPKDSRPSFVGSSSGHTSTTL
Test: [35S]-GTPγS binding assay for human CXCR2 receptor using SPA technology
Type: biochemical
Settings: CHO-K1 membranes expressing human CXCR2; 100 nM IL-8 stimulation
Procedure: The assay is performed in duplicate in 96 well Optiplate™ microplate in a final volume of 250 μl per well. Compounds are diluted in DMSO (0.5% final concentration) and incubated in 20 mM HEPES buffer pH 7.4 containing 10 mM MgCl2, 100 mM NaCl, 1 mM EDTA plus 100 nM IL-8, 50 μM GDP and 500 μM [^35S]GTPγS per well. SPA beads (1 mg/well final concentration) were pre-mixed with the membranes (10 μg/well final concentration) in assay buffer: 20 mM HEPES buffer pH 7.4 containing 10 mM MgCl2, 100 mM NaCl, 1 mM EDTA. The bead membrane mixture is added to each well, plates are sealed and incubated at room temperature for 60 minutes. The plate is centrifuged and read on Packard TopCount™ scintillation counter, program [^35S dpm] for 1 min/well. Data are expressed as the % response to 100 nM IL-8 minus basal.

CCc1nc2nc(CSc3cccc(F)c3F)cc(O)n2n1 [Example 4]
IC50: 2400 nM

Reference: patent US20100069407A1, “CXCR2 inhibitors” (priority 2006, published 2010)
